From article PMC8512368, “Alpha-Glucosidase Inhibitory Assay-Screened Isolation and Molecular Docking Model from Bauhinia pulla Active Compounds” (Molecules, 2021)
Read-outs that look alike come from different tables or passages of the source.

Target: T1, alpha-glucosidase enzyme from Saccharomyces cerevisiae (EC 3.2.1.20) (Saccharomyces cerevisiae, UniProt P53341)
T1 construct: purchased Sigma-Aldrich
Assay: biochemical
Type: biochemical
Experimental: Briefly, the enzyme from Saccharomyces cerevisiae (EC 3.2.1.20) and the pNPG substrate were dissolved in 0.1 M phosphate buffer (pH 7), which was enriched by bovine serum albumin and sodium azide. Standards and samples were suspended in 20% (v/v) of DMSO in a water solution. In a 96-well plate, 50 µl of PBS, standards, samples and enzyme solutions were mixed and incubated for 2 min at 37 °C. At last, 50 µl of 4 mM pNPG was added and incubated for 5 min before the kinetic parameter measurement, as described earlier.
The velocity was examined by a linear relationship equation between absorbance and time, Equation (1).
The percent inhibition was determined for the highest velocity as:% Inhibition = (V control − V sample)/(V control) × 100(2)
The IC50 value was calculated by using a calibration curve equation between samples at five different concentrations and inhibition percentages.

[1] = isolated compounds (Table 2), read-out: IC50 (converted)

T1 sequence (P53341 whole entry): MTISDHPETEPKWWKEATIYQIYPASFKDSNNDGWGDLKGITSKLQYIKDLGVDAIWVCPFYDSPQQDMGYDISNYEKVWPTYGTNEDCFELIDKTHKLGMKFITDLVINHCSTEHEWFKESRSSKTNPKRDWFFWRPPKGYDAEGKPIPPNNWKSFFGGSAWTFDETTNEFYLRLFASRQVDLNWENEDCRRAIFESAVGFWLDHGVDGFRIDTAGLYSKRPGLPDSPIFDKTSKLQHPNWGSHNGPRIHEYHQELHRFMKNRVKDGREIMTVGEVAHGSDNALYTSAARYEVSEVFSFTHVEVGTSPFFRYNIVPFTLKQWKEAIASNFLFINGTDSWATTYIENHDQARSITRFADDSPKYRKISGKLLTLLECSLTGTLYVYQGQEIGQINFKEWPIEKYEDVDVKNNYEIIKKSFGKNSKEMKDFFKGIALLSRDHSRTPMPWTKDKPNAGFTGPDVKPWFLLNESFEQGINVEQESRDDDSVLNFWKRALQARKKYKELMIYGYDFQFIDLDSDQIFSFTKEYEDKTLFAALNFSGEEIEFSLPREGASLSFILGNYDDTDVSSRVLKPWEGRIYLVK

SMILES | IC50 [1] [µM] | IC50 fold higher compared to luteolin (ratio of IC50 values) [fold] | IC50 [µM] | inhibitory activity drop compared with quercetin (sugar moiety added) (ratio of IC50 values)
COc1ccc(/C=C/C(=O)c2ccc(O)cc2O)cc1O [3,2’ ,4’-trihydroxy-4-methoxychalcone, 3,2’,4’-trihydroxy-4-methoxychalcone] | 4450 |  |  | 
COc1ccc(/C=C/C(=O)c2ccc(O)cc2O)cc1 [4-methyl ether isoliquiritigenin] | 814 |  |  | 
O=c1cc(-c2ccc(O)c(O)c2)oc2cc(O)ccc12 [5-deoxyluteolin] | 2130 | 3.5 |  | 
C[C@@H]1O[C@@H](Oc2c(-c3ccc(O)c(O)c3)oc3cc(O)cc(O)c3c2=O)[C@H](O)[C@H](O)[C@H]1O [Quercitrin, quercitrin] |  |  | 111 | roughly 10 fold
O=c1cc(-c2ccc(O)c(O)c2)oc2cc(O)cc(O)c12 [Luteolin, luteolin] | 573 |  |  | 
